Measured values published in a melting point compilation (Tetko et al.; mined from patent text by program, amines drawn as free bases though some values may be those of a salt).

SMILES | melting point
CC(C)(C)C(=O)OCOP(=O)(CCCCc1ccccc1)CC(=O)O (stereo not drawn) | 48 to 50 °C
COc1cc(N)c2nccc(C)c2c1OCCCCCc1ccco1 | 41 to 42 °C
COc1ccccc1-n1cnc2cc(N)ccc21 | 48 to 50 °C
CCOC(=O)/C(=C\Nc1cccc(OC)c1)c1ccccc1 | 49 to 50 °C
O=Cc1cn([C@H]2CCc3c(F)cc(F)cc3C2)c(=S)[nH]1 | > 285 °C
Nc1nccc(C=Cc2ccccn2)c1[N+](=O)[O-] | 161 to 163 °C
COc1ccn2nc(S(=O)(=O)Cl)nc2n1 | 110 to 112 °C
Cc1c(C(F)(F)F)cc([N+](=O)[O-])c(Cl)c1[N+](=O)[O-] | 81 to 82 °C
Cc1cc(F)ccc1-c1cc(N2CCSCC2)ncc1N(C)C(=O)C(C)(C)c1cc(C(F)(F)F)cc(C(F)(F)F)c1 | 168 to 170 °C
CSCC(=O)[C@H](Cc1ccccc1)NC(=O)[C@H](CC(C)C)NC(=O)OCc1ccccc1 | 81 to 91 °C
COc1cc2c(cc1OC)CN(CCCNS(=O)(=O)c1cc(Cl)c(F)cc1F)CC2 | 110 to 112 °C
CC(C)(C)OC(=O)N1CCC(c2c[nH]c3ccc(N)cc23)CC1 | 205 to 207 °C
CC(=O)Nc1ccccc1NC(=O)CN1C(=O)c2ccccc2C1=O | 270 °C
O=P(O)(O)OC(Cn1cncn1)(Cn1cncn1)c1ccc(F)cc1F | 223 to 224 °C
Cc1ccc(-c2ccc3c(c2)C=C(C(=O)Nc2ccc(CO)cc2)CC3)cc1 | 219 to 220 °C
O=c1[nH]c2ncc(-c3ccc(O)cc3)nc2n1CCO | 308 to 310 °C
CCCOc1cc(Cn2[nH]c(N)cc2=O)ccc1Cl | 143 °C
COc1ccc(N2CCN(c3ccc(N4C(=O)C5CCCCN5C4=O)cc3)CC2)cc1 (stereo not drawn) | 223 °C
CCOc1cc(C=[N+]([O-])C2CCCCC2)ccc1OC | 114 °C
CC(=O)OCC1C(O)C2OC(C)(C)OC2C2NC(=O)c3cc4c(cc3C12)OCO4 (stereo not drawn) | > 200 °C
COc1ccc(-c2nnc(SC)nc2-c2ccc(OC)cc2)cc1 | 152 to 155 °C
CSc1ncnc(SC)c1NC(=O)CN1CCN(CCSc2nc3ccccc3o2)CC1 | 171 to 172 °C
CC(C=O)=Cc1cc([N+](=O)[O-])ccc1Cl | 99 to 102 °C
CCN1CCN(c2ccnc3c(NC(=O)c4c(Cl)cccc4Cl)ccc(C)c23)C1=O | 235 to 236 °C
O=c1[nH][nH]c(=O)n1-c1c(F)c(F)c(F)c(F)c1F | 180 to 182 °C

SMILES | melting point
CCOC(=O)c1cnc2[nH]ncc2c1O | 275 °C
C=C(C(=O)NCc1ccccc1)c1ccccc1 | 84 to 86 °C
O=C(NC1CCN(CCOC(=O)c2ccccc2)CC1)c1ccccc1 | 139 to 140 °C
CCOC(=O)c1cc(=O)c2cccc(NC(=O)c3ccc4c(c3)CC(CSCc3ccccc3)O4)c2o1 (stereo not drawn) | 175 to 177 °C
Nc1ccc(C(=O)Nc2ccccc2-c2nnn[nH]2)cc1 | 202 to 204 °C
CN(C)C(=O)NCc1cccc2c1CN(C1CCC(=O)NC1=O)C2=O (stereo not drawn) | 169 to 171 °C
CCCCCCCCC(SCCCCCC)C(=O)Nc1cccc2nnccc12 (stereo not drawn) | 54 to 56 °C
O=[N+]([O-])c1ccc(NN=C(c2ccc(O)cc2O)c2ccc(O)cc2O)c([N+](=O)[O-])c1 | 240 to 242 °C
CS(=O)(=O)Nc1ccc(C(=O)CN2CCN(c3cccnc3)CC2)cc1 | 197 to 198 °C
COc1ccc2nc3n(c(=O)c2c1OC)CS(=O)(=O)N3 | > 300 °C
O=C1CCc2c(-c3ccc(F)cc3)sc(-c3ccncc3)c21 | 155 to 157 °C
COc1ccc(C(=O)Nc2c(Cl)cncc2Cl)c2c1oc1ccc(Cl)cc12 | > 250 °C
COc1cc(NC(=O)Nc2c(-c3ccccc3C)c3cc4c(cc3oc2=O)CCC4)cc(OC)c1O | 176 to 179 °C
CCCCCCCCCCCCCCCCCCNC(=O)c1ccccc1N | 89 to 90 °C
COC(=O)C1CCC(=O)c2c(-c3ccc(Cl)cc3)noc2C1 (stereo not drawn) | 108 to 109 °C
c1ccc(-c2cn3c(nc4ccccc43)s2)nc1 | 222 to 224 °C
CC(C)(C)c1cc(C=Nn2ccnc2N2CCOCC2)cc(C(C)(C)C)c1O | 185 to 187 °C
COc1cc2c(cc1Cl)C(Cl)(c1ccccc1Cl)C(=O)N2 (stereo not drawn) | 237 to 240 °C
O=C(O)C(Oc1ccccc1)c1ccc(Oc2ccc(Cl)cc2)cc1 (stereo not drawn) | 114 to 116 °C
Cc1cc(C(O)C(=O)c2ccccc2)c(C)c(C)c1C (stereo not drawn) | 99 to 101 °C
COc1ccc(C2C3=C(COC3=O)Nc3ccc4cc[nH]c4c32)cc1O (stereo not drawn) | 297 to 299 °C
O=[N+]([O-])c1cc(Cl)c(OCC(F)(F)F)cc1F | 54 to 55 °C
NC(=O)c1sc2nc(N3CCC(NCC(O)c4ccc5c(c4)OCO5)CC3)cc(C(F)(F)F)c2c1N (stereo not drawn) | 232 to 234 °C
O=C(/C=C/c1cccc(NC(=O)/C=C/c2ccc3c(c2)OCO3)c1)NO | 128 °C
c1ccc(Oc2cccc3c2CCN(Cc2c[nH]c4ncccc24)C3)cc1 | 179 to 180 °C

SMILES | melting point
CN1CCN(c2cc(Cl)cc3c2c(=O)n(Cc2ccccc2O)c(=O)n3Cc2ccccc2)CC1 | 130 to 132 °C
FC(F)(F)c1cc(C(F)(F)F)n(-c2ccc(NCc3ccncc3)cc2)n1 | 92 to 94 °C
COc1nc(C)c(C)nc1N(C)C(=O)N1CCN(c2cc([N+](=O)[O-])cc([N+](=O)[O-])c2)CC1 | 133 to 135 °C
Clc1ccc(C2=CCN(Cc3coc4ncccc34)CC2)cc1 | 116 °C
Cc1nc2ccccn2c(=O)c1CCN1CCc2oc3ccccc3c2C1 | 186 °C
COc1ccc(CN(CCN(C)CCCCCCNC(=NCCCOc2cccc(CN3CCCCC3)c2)NC#N)c2ccccn2)cc1 | 79 °C
Cc1oc(-c2ccccc2)nc1C=Cc1ccc(/C=C/C=C2/OC(=O)NC2=O)cc1 | 274 to 275 °C
C[Si](C)(C)CCCCCCCCCCCCCCNc1ccc(C(=O)O)cc1 | 105 to 107 °C
CCCCCN1C(=O)C(CCC(=O)OCC)(NC(=O)c2ccc3ccccc3c2)c2ccc(OC)cc21 (stereo not drawn) | 156 to 159 °C
Cc1ccc2c(c1)N=Cc1cccc3c1N2CC3 | 77 to 78 °C
CC(C)(C)OC(=O)NCCCCCCC(=O)Nc1ccc(-n2nc(C(F)(F)F)cc2C(F)(F)F)cc1 | 86 to 88 °C
COC(=O)c1ccc(Cc2cc3cc(C(F)(F)F)ccc3[nH]2)cc1 | 127 °C
Cn1cc(-c2cc(-c3ccc4[nH]ncc4c3)ccn2)n(-c2ccc(C(C)(C)C#N)cc2)c1=O | 165 °C
CN1C(=O)CC[C@]2(C)c3ccc(-c4cccc(C=O)c4)cc3CC[C@@H]12 | 163 °C
Cn1c(Sc2ccc(C(=O)O)c(Cl)c2)n[nH]c1=O | 236 °C
O=S1(=O)C=CC(c2ccccc2)(c2ccccc2)CC1 | 166 °C
CCCCc1cc2ccccc2c(Oc2ccc(/C=C/C(=O)O)cc2)c1-c1ccc(F)cc1 | 169 to 170 °C
COC(=O)CCCc1cc2nc(Cl)ccc2n1S(=O)(=O)c1ccc(C)cc1 | 106 °C
Cc1nc(N=Nc2ccccc2)c(O)c(=O)[nH]1 | 243 to 245 °C
CCOc1cc(C(=O)O)cc(N)c1Cc1ccccc1 | 165 to 167 °C
CCC(CN1CCCC1)C(C#N)(c1ccccc1)c1ccccc1 (stereo not drawn) | 90 °C
CC(C)(C)c1cc(-n2nc3ccc(Sc4ccc5nn(-c6cc(C(C)(C)C)cc(C(C)(C)C)c6O)nc5c4)cc3n2)c(O)c(C(C)(C)C)c1 | 245 to 246 °C
c1ccc(C(c2ccccc2)N2CCN(CCCSc3ccc4nncn4n3)CC2)cc1 | 79 to 80 °C
Cc1cn(CCCC(=O)O)c2ccccc12 | 82 to 84 °C
CCc1c([N+](=O)[O-])c(C(N)=O)nn1CCOC | 140 °C

SMILES | melting point
Cc1noc(NS(=O)(=O)c2ccc(Nc3ccc(N)cc3N)cc2)c1C | 181 to 183 °C
COCCOc1ccc(CCC(=O)NS(=O)(=O)c2ccc(OC)cc2)c(Oc2ncc(C(F)(F)F)cc2Cl)c1 | 118 to 120 °C
O=C(CCCCCN1CCN(c2cccc(OC(F)(F)F)c2)CC1)N1Cc2ccccc2C1 | 89 °C
Cc1cc(F)ccc1-c1cncc(OC2SCC(O)C(O)C2O)c1 (stereo not drawn) | 217 °C
Cc1c(C(=O)Cl)cccc1[N+](=O)[O-] | 68 to 70 °C
CC(C)(C)C(O)(CNc1ccc(Cl)c(Cl)c1)Cn1cncn1 (stereo not drawn) | 132 to 133 °C
C=C(C)Cn1c(=O)c2ccccc2n1C(=O)OCC | 48 to 50 °C
CCCCNc1c(C(=O)OCC)c(C)nc(Cl)c1[N+](=O)[O-] | 33 to 35 °C
O=C(Nc1nccs1)c1nc(-c2cccc3ccccc23)[nH]c1-c1ccc(Cl)cc1 | 206 to 208 °C
CN(C)C(=S)Nc1ccc(NNC=O)cc1 | 187 to 189 °C
O=C(O)C(=O)c1ccc(OCCCCCCc2cccc(O)c2O)cc1 | 127 to 130 °C
COc1cc(-c2ccc(C#N)cc2)cc(C=O)c1O | 177 to 178 °C
CCc1nc(C)cn1-c1cc2c(cc1C(F)(F)F)[nH]c(=O)c1nnc(CP(=O)(O)O)n12 | > 300 °C
CCOc1ccc(C(=O)O)c(Cl)n1 | 185 to 188 °C
CN1C(=O)N(CC(CS(=O)(=O)c2ccc(Oc3ccc(C(F)(F)F)cc3)cc2)N(O)C=O)C(=O)C1(C)C (stereo not drawn) | 141 to 143 °C
CC(C)C[C@H](NC(=O)[C@H](NC(=O)OCc1ccccc1)C(C)C)C(=O)O | 134 to 136 °C
COC(=O)c1ccc(C2=NOC(c3cc(Cl)cc(C(F)(F)F)c3)(C(F)(F)F)C2)c2ccccc12 (stereo not drawn) | 112 °C
CN(C(=O)NC(=O)c1ccccc1)C(=O)Nc1nc(C(Cl)(Cl)Cl)ns1 | 70 °C
O=[N+]([O-])c1cnn(-c2c(Cl)cc(C(F)(F)F)cc2Cl)n1 | 105 °C
CC(C)CNc1cccnc1N1CCN(C(=O)c2ccc(C(=O)NC(C)(C)CO)cn2)CC1 | 140 to 143 °C
Nc1ncnc2c1ncn2CCO | 236 °C
Cc1ccc(S(=O)(=O)N2C(C3=NOC(C)N3)CCC2c2ccc(F)cc2)cc1 (stereo not drawn) | 68 °C
Cc1nc(C)c2c(n1)N(Cc1ccc(-c3ccccc3-c3nnn[nH]3)cc1)C(=O)C2 | 228 to 229 °C
